Four compounds from patent US11078207B2, “Substituted pyrrolo[2,3-d]pyrimidines as HER2 inhibitors” (TAIHO PHARMACEUTICAL CO., LTD., priority 2019, dated 2021) can be followed below.

The term IC50 denotes the concentration at which inhibition is half-maximal.

Assay [1] concerns the target HER2 exon 20 insertion mutant (HER2ex20insYVMA, A775_G776insYVMA) (Homo sapiens, UniProt P04626, DUP772-775). Briefly: Inhibitory action (in vitro) against HER2 exon 20 insertion mutant phosphorylation activity. The assay is classed as biochemical. The note with it: 30 min pre-incubation, ATP 200 μM, 25° C. 220 minutes. In a few lines:
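Purified recombinant human HER2 A775_G776insYVMA pre-incubated with compound (5% DMSO) 30 min at 25 °C in Tris pH 7.5 buffer; reaction with 1 μM ProfilerPro Peptide 22, 200 μM ATP, 25 mM MnCl2, 20 mM MgCl2 for 220 min at 25 °C, stopped with EDTA. Phosphorylated and unphosphorylated peptide separated by microchannel capillary electrophoresis.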

Assay [2] concerns SK-BR-3 cells. Description: Growth inhibitory activity against HER2 expressing cell line SK-BR-3. The assay is classed as cell-based. The note with it: Homo sapiens, SK-BR-3, 72 h; 3 days, CellTiter-Glo 2.0. A digest of the protocol:
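SK-BR-3 cells in McCoy's 5a with 10% FBS, pre-cultured 1 day, then exposed to compound (final DMSO 0.2%) for 3 days at 37° C, 5% CO2. Viability by CellTiter-Glo 2.0 luminescence; growth inhibition % = (C−T)/C×100 versus untreated wells.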

The test system of assay [3] is NCI-N87 cells. Description: Growth inhibitory activity against HER2 expressing cell line NCI-N87. Type of assay: cell-based. The note with it: Homo sapiens, NCI-N87, 72 h; 3 days, CellTiter-Glo 2.0.
The target of assay [4] is T1, HER2 (Homo sapiens, UniProt P04626).
T1 construct: purchased Carna Biosciences, Inc
T1 sequence (P04626 23-1255): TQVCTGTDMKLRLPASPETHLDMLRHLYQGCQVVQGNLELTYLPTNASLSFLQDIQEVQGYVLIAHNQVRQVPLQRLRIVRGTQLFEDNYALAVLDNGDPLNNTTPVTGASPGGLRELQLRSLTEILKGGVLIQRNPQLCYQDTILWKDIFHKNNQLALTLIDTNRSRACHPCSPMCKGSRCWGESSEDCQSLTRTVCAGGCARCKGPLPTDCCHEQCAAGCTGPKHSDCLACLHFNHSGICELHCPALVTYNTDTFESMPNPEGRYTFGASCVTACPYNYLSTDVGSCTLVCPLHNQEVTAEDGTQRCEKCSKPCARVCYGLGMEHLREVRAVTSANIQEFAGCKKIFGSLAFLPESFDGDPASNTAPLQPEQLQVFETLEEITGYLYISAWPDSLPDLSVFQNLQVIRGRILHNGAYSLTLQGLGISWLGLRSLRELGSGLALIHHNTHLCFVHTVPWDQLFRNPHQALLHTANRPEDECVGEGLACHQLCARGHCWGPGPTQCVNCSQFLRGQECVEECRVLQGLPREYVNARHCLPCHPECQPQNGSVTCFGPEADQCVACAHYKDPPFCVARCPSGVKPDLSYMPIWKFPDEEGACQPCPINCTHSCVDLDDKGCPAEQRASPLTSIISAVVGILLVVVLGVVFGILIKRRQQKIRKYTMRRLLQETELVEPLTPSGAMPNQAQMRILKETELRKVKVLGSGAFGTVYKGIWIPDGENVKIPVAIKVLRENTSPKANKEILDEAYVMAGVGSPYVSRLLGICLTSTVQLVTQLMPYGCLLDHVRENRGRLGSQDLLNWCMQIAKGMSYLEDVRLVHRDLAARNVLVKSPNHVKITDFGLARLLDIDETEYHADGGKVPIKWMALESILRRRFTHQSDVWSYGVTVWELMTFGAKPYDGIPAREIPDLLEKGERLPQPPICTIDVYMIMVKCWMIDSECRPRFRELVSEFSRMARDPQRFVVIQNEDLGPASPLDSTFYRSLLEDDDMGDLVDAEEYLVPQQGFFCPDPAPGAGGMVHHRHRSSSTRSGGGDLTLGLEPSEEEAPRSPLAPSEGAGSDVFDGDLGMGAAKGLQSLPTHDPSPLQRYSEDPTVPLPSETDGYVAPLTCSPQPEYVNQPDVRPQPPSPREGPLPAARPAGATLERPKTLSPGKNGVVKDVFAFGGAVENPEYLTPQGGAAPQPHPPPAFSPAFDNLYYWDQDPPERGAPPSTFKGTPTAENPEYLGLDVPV
Description: Inhibitory effect (in vitro) on HER2 phosphorylation activity. The assay is classed as biochemical. To be noted: recombinant human HER2, ATP 5 μM, 25° C. 30 minutes. In a few lines:
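Purified recombinant human HER2 phosphorylating 5-FAM-labeled ProfilerPro Peptide 22 substrate, compounds serially diluted in DMSO. Reaction stopped with EDTA at 30 mM final; unphosphorylated and phosphorylated peptides separated and detected by microchannel capillary electrophoresis.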

Sequence of HER2 exon 20 insertion mutant (HER2ex20insYVMA, A775_G776insYVMA) (P04626 with tags, fused parts or gaps DUP772-775): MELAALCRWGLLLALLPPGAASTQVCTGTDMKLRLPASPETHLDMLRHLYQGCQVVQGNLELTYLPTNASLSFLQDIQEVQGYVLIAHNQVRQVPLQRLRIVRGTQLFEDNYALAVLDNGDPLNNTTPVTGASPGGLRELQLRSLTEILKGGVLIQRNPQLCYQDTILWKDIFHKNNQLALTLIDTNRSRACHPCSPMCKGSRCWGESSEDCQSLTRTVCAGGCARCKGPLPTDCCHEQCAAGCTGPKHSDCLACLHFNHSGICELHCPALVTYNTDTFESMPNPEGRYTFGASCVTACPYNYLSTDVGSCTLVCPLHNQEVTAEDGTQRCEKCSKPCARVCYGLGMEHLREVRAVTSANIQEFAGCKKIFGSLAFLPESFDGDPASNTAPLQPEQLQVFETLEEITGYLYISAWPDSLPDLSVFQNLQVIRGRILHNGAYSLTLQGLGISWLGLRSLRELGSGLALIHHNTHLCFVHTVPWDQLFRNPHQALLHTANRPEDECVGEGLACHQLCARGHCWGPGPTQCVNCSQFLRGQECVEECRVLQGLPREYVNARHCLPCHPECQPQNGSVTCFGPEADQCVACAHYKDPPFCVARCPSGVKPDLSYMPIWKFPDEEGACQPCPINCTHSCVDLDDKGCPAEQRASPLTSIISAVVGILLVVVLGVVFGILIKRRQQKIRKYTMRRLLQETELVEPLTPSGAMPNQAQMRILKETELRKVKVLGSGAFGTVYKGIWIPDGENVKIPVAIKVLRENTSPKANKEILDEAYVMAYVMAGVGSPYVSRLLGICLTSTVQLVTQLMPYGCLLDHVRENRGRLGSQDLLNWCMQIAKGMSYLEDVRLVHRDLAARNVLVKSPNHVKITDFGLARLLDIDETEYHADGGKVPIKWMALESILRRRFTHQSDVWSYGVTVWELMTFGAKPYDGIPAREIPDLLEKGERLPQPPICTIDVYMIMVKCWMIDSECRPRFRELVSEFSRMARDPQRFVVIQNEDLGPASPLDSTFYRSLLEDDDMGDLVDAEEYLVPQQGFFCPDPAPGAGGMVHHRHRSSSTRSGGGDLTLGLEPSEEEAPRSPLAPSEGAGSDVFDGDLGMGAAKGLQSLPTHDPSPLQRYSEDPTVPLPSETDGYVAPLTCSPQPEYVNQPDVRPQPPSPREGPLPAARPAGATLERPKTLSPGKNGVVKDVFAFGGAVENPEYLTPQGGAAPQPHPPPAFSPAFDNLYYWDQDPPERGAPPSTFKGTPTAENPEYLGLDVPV

Consider `C=CC(=O)N1C[C@H](n2c(C#CCC)c(C(=O)N[C@H](C)c3ccccc3)c3c(N)ncnc32)C[C@@H]1C` [Example 14, 7-((3R,5S)-1-acryloyl-5-methylpyrrolidin-3-yl)-4-amino-6-(but-1-yn-1-yl)-N—((R)-1-phenylethyl)-7H-pyrrolo[2,3-d]pyrimidine-5-carboxamide], for which the IC50 in assay [1] was less than 0.3 nM; in assay [2], 8.1 nM; in assay [3], 9.1 nM; in assay [4] it was 2.2 nM.

For `C=CC(=O)N1C[C@H](n2c(C#CC)c(C(=O)N[C@H](C)c3ccccc3)c3c(N)ncnc32)C[C@@H]1CC` [Example 16, 7-((3R,5S)-1-acryloyl-5-ethylpyrrolidin-3-yl)-4-amino-N—((R)-1-phenylethyl)-6-(prop-1-yn-1-yl)-7H-pyrrolo[2,3-d]pyrimidine-5-carboxamide], the half-maximal inhibitory concentration (IC50) in assay [1] came out at 0.44 nM; in assay [2] it was 1.4 nM; in assay [3] it was 0.9 nM; in assay [4], 3.3 nM.

As to `C=CC(=O)N1C[C@H](n2c(C#CC3CC3)c(C(=O)N[C@H](C)c3ccccc3)c3c(N)ncnc32)C[C@@H]1CC` [Example 17, 7-((3R,5S)-1-acryloyl-5-ethylpyrrolidin-3-yl)-4-amino-6-(cyclopropylethynyl)-N—((R)-1-phenylethyl)-7H-pyrrolo[2,3-d]pyrimidine-5-carboxamide], the IC50 in assay [1] came to 0.54 nM; in assay [2], 4 nM; in assay [3], 2.2 nM; in assay [4] it was 2.9 nM.

With `C=CC(=O)N1C[C@H](n2c(C#CC3CC3)c(C(=O)N[C@H](C)c3ccccc3)c3c(N)ncnc32)C[C@@H]1COC` [Example 18, 7-((3R,5R)-1-acryloyl-5-(methoxymethyl)pyrrolidin-3-yl)-4-amino-6-(cyclopropylethynyl)-N—((R)-1-phenylethyl)-7H-pyrrolo[2,3-d]pyrimidine-5-carboxamide], the IC50 was less than 0.3 nM in assay [1], 3.4 nM in assay [2], 2.6 nM in assay [3] and 2.3 nM in assay [4].
